Test results taken from patent publication US20080249006A1, “Pharmaceutical Preparation for the Treatment of Shock” (FIBREX MEDICAL RESEARCH & DEVELOPMENT GESMBH, priority 2004, published 2008).

Key:
[1] = test system: Gram-negative shock, Lipopolysaccharide from E. coli, serotype 0.127:B8; assay: Gram-negative shock (LPS-induced multiple organ failure) in rats; assay type: in vivo, Wistar rats; design: Glucose / Amylase / ALT / AST / Creatinine / Urea / heart rate (mean): unit not given here; settings: for mean number of fibrin thrombi within vessels: end of the experiment, acidic fuchsin-orange G stain
Protocol: Male Wistar rats weighing 230-280 g were housed in the Tierversuchsanlage (University of Düisseldorf) and fed on a standard diet with water ad libitum. All procedures were carried out in accordance with the AAALAC guidelines and Guide for the Care and Use of Laboratory Animals (Department of Health and Human Services, National Institutes of Health, Publication No. 86-23). In addition, all experiments have been approved by an ethical and research board of the University of Düisseldorf and the county. As previously described (Zacharowski et al. Crit. Care Med 2000, Zacharowski et al. Crit. Care Med 2001; 29:1599-1608), rats were anaesthetized with sodium thiopentone (120 mg/kg i.p.) and anesthesia was maintained with supplementary doses of sodium thiopentone as required.
The trachea was cannulated to facilitate respiration and rectal temperature was maintained at 37° C. with a homoeothermic blanket. […] The right jugular vein was cannulated for the administration of drugs. The bladder was also cannulated to facilitate urine flow and to prevent the possibility of the development of post-renal failure. All animals received a total fluid replacement of 1.0 ml/kg/h (0.9% sodium chloride, saline, as an i.v. infusion into the jugular vein) throughout the experiment. Upon completion of the surgical procedure, cardiovascular parameters were allowed to stabilize for 15 min and constantly recorded over 6 h. In this model of LPS-induced multiple organ failure, a period of 6 h is essential to achieve a significant rise in the serum levels of AST and ALT, while a significant rise in the serum levels of urea and creatinine can already be observed after 2 h.
Three groups were studied: Rats were subjected to sham operation: (sham). Rats were subjected to Gram-negative shock. Lipopolysaccharide from E. coli, serotype 0.127:B8 (6 mg/kg i.v.) was given over 5 min i.v., 1 h later, animals received saline (2.4 ml/kg): (LPS+saline). Rats were subjected to Gram-negative shock. Lipopolysaccharide from E. coli, serotype 0.127:B8 (6 mg/kg i.v.) was given over 5 min i.v., animals received Bβ15-42 (2.4 mg/kg): (LPS+Bβ15-42).
Six hours after the induction of Gram-negative shock, blood was collected from the catheter placed in the right carotid artery. The blood sample was centrifuged (1610×g for 3 min at room temperature) to separate plasma. The following marker enzymes were measured in the plasma as biochemical indicators of multiple organ injury/dysfunction:
Liver injury was assessed by measuring the rise in plasma levels of alanine aminotransferase (ALT, a specific marker for hepatic parenchymal injury) and aspartate aminotransferase (AST, a non-specific marker for hepatic injury).
Plasma levels of glucose and amylase were measured as indirect markers of pancreatic function and injury.
In addition, arterial pO2 was measured as indirect marker of lung function/injury. Laboratory values
Organ (lung, liver, heart and kidney) biopsies of all groups studied were taken at the end of the experiment. The biopsies were fixed in buffered formaldehyde solution (4% in phosphate buffered saline) at room temperature and sent to Vienna. […] In sham treated animals no fibrin thrombi were present.

[2] = test system: Dengue virus type 2 (DEN-2), strain P23085; assay: Treatment of dengue virus infected mice; assay type: in vivo, BALB/c mice; settings: for IL-1 / IL-6 / TNF: serum
[3] = target: T1, recombinant human VE-cadherin FC fusion protein (Homo sapiens, UniProt P33151); assay: ELISA: binding of FLAG-tagged peptide to coated VE-cadherin; settings: FLAG-tagged peptide 0-80 μMol
T1 construct: Fc (immunoglobulin Fc fusion partner); purchased R&D Systems, Minneapolis
Text: (§1) We have developed a modified ELISA working with the same principles described by others, but the purpose of the herein described ELISA is not to quantify fibrin degradation products, but to search for proteins, peptides or compounds which interfere with the binding of the Bbeta15-42 sequence and the VE-cadherin. […] Into this system one can introduce any other additional substance and measure if this substance inhibits VE-cadherin/Bbeta15-42 binding.
(§2) In detail, 96 well protein immobilizer plates (Exiqon, Vedbaek, D K) were coated with recombinant human VE-cadherin FC fusion protein (8 nM/ml; R&D Systems, Minneapolis) in PBS and were left overnight at 4° C. Plates were then washed and incubated with peptide Bβ15-42 ([…]) tagged with a FLAG-sequence (DYKDDDDK) at the C-terminus of the peptide or with a FLAG-tagged random peptide ([…]) at a concentration of 0-80 μMol. After washing, bound FLAG-tagged peptide was detected by incubation with a peroxidase-labelled anti-FLAG antibody (Sigma, St. Louis, USA) and chromogenic substrate. Optical density was determined by an ELISA plate reader set at a wavelength of 450 nm. Data represent the mean of three independent experiments, each performed in triplicates.

[4] = in vivo, ischemia/reperfusion; cited from earlier work
[5] = test system: endothelial surfaces; settings: in vitro; cited from earlier work
[6] = target: T2, VE-cadherin (Homo sapiens, UniProt P33151); assay: Competition ELISA: inhibition of FLAG-tagged Bbeta15-42 binding to VE-cadherin
T2 construct: Fc (immunoglobulin Fc fusion partner); purchased R&D Systems, Minneapolis
Text: as §1, §2
In a next step, we analyzed whether this ELISA can be used to screen for other peptides/compounds to compete with the binding of the Bβ15-42 sequence to VE-cadherin.
VE-cadherin was coated to the plastic surface at a concentration of 8 nM. Then indicated peptides were added at concentrations of 200 μM, NDSK or NDSK-II were added at indicated concentrations. Detection of binding of the FLAG-tagged Bbeta15-42 (12 μM) was performed as described above.

[7] = test system: endothelium; settings: cited from earlier work
[8] = plasma, 6 h after induction of Gram-negative shock, Bβ15-42 2.4 mg/kg
[9] = DEN-2 1 LD50 i.p., 4800 μg/kg i.p. twice per day, day 3 to day 8 post infection, p < 0.05 between groups

T2 sequence (P33151 with tags, fused parts or gaps limits assumed): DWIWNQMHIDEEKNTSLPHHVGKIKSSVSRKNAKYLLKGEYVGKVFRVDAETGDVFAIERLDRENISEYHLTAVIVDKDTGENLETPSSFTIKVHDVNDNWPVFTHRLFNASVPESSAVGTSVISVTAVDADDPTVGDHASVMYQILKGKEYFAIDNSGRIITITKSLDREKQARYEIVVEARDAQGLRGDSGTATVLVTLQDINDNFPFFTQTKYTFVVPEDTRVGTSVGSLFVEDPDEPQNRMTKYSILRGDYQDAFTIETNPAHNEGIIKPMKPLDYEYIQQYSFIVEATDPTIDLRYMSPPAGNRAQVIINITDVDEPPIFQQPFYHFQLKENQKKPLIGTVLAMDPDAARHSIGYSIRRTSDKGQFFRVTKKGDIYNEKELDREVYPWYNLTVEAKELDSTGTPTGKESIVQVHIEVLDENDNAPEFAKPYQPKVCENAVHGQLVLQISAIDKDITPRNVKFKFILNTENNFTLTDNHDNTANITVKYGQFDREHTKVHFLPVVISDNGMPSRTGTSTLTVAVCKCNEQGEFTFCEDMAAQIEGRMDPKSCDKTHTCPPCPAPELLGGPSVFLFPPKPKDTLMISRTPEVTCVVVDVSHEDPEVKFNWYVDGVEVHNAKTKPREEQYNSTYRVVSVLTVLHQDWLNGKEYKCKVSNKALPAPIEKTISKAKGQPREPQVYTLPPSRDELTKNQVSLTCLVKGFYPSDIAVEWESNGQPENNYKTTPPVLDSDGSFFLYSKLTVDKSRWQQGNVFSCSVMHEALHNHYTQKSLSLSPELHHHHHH
T1 sequence (P33151 with tags, fused parts or gaps limits assumed): as above

## GHRPLDKKREEAPSLRPAPPPISGGGYR [Bβ15-42, peptide matching amino acids 15-42 of the Bbeta chain of human fibrin]
[1]; LPS 6 mg/kg i.v. plus Bβ15-42 2.4 mg/kg, n = 20 in each group, p < 0.05
  Survival: 88%
[1]; LPS + Bβ15-42, time 0 h
  heart rate (mean): 436.9
  mean arterial pressure (mean): 128.9
[1]; LPS + Bβ15-42, time 1 h
  heart rate (mean): 484.8
  mean arterial pressure (mean): 83.7
[1]; LPS + Bβ15-42, time 2 h
  heart rate (mean): 484.1
  mean arterial pressure (mean): 102.3
[1]; LPS + Bβ15-42, time 3 h
  heart rate (mean): 509.8
  mean arterial pressure (mean): 103.2
[1]; LPS + Bβ15-42, time 4 h
  heart rate (mean): 516.7
  mean arterial pressure (mean): 101.2
[1]; LPS + Bβ15-42, time 5 h
  heart rate (mean): 533.7
  mean arterial pressure (mean): 97.1
[1]; LPS + Bβ15-42, time 6 h
  heart rate (mean): 541.6
  mean arterial pressure (mean): 107.7
[1]; acidic fuchsin-orange G, p<0.05
  Fibrin thrombi in sections stained for fibrin deposits, controls versus treated (in words): significantly elevated numbers of fibrin thrombi in controls receiving LPS alone as compared with animals treated with LPS plus Bβ15-42
[1]; arterial, 6 h after induction of Gram-negative shock, Bβ15-42 2.4 mg/kg
  pO2: 98.7
[1]; biopsies at the end of the experiment
  Standard H&E-stained organ sections (lung, liver, heart, kidney), comparison of groups: no differences
[1]; heart
  mean number of fibrin thrombi within vessels: 5 + 2
[1]; kidney
  mean number of fibrin thrombi within vessels: 2 + 9
[1]; liver
  mean number of fibrin thrombi within vessels: 78 + 37
[1]; lung
  mean number of fibrin thrombi within vessels: 1 + 0
[1]; [8]
  ALT: 261.9
  AST: 529.0
  Amylase: 1945.1
  Creatinine: 0.6
  Glucose: 45.8
  Urea: 107.8
[2]; DEN-2 1 LD50 i.p., 4800 μg/kg i.p. twice per day, day 3 to day 8 post infection
  mean time to death: All mice survived
[2]; [9]
  Mortality (%): 0%
  Survival (%): 100%
[2]; day 2
  viremia: 1.2 ± 0.2 1 g PFU/ml
[2]; day 3^b
  viremia: 2.2 ± 0.2 1 g PFU/ml
[2]; day 3 after challenge
  hematokrit: 15%
  IL-1: 32 pg/mL
  IL-6: 140 pg/mL
  TNF: 32 pg/mL
[2]; day 4
  viremia: 4.2 ± 0.2 1 g PFU/ml
[2]; day 5
  viremia: 5.6 ± 0.4 1 g PFU/ml
[2]; day 5 after challenge
  hematokrit: 33%
  IL-1: 29 pg/mL
  IL-6: 110 pg/mL
  TNF: 65 pg/mL
[2]; day 6
  viremia: 6.0 ± 0.4 1 g PFU/ml
[2]; day 7
  viremia: 5.9 ± 0.4 1 g PFU/ml
[2]; day 7 after challenge
  hematokrit: 43%
  IL-1: 28 pg/mL
  IL-6: 100 pg/mL
  TNF: 45 pg/mL
[2]; day 28
  viremia: 0 1 g PFU/ml
[2]; first line of the table, day number not given
  viremia: 0 1 g PFU/ml
[3]
  Binding to VE-cadherin (in words): bound to VE-cadherin in a concentration-dependent manner
[4]
  Myocardial infarct sizes (in words): reduces myocardial infarct sizes
  Myocardial inflammation (in words): prevents myocardial inflammation
[5]
  Binding of fibrin fragments to endothelial surfaces (in words): blocks binding of fibrin fragments to endothelial surfaces
[6]
  Inhibition of binding of flag-tagged peptide Bβ15-42 to VE-cadherin (in words): completely inhibited
[6]; blocking reagent 200 μM, FLAG-tagged Bbeta15-42 12 μM, VE-cadherin 8 nM
  % inhibition of 15-42FLAG-binding to VE-cadherin mean ± SD: 100 ± 10%
[7]
  Inflammation in vitro (in words): blocks inflammation in vitro
